What was measured:
Type in all cases: in vivo, male Wistar rats
[1] = system: indomethacin-induced gastric ulcers; assay: Indomethacin-induced ulcer model, preventive treatment: gastric lesions; parameters: key to GA1 (gastroprotective activity calculated for number of lesions): GA1 = Pauls Index of control / Pauls Index of treated group; key to GA2 (gastroprotective activity calculated for lesion size): GA2 = Ulcer Index of control / Ulcer Index of treated group; key to Ulcer Index: UI = mean lesion area in group x % animals with lesions / 100; Small round Size / Total Size / Large round Size / Linear Size / Lesion Size: unit not given here; settings: for # Lesions / % Animals with Ulcers / GA1 (gastroprotective activity calculated for number of lesions) / GA2 (gastroprotective activity calculated for lesion size) / Lesion Size / PI / Ulcer Index / Large round Amount / Large round Size / Linear Amount / Linear Size / Small round Amount / Small round Size / Total Amount / Total Size: preventive; for Large round Amount / Large round Size / Linear Amount / Linear Size / Small round Amount / Small round Size / Total Amount / Total Size: indomethacin-induced ulcers
Description: All studies were conducted on male Wistar rats weighing 220 ± 20 g, obtained from Rappolovo nursery (Leningrad oblast). For 14 days prior to the experiment, the animals were held in isolation. The animals were handled in accordance with the European Convention for the Protection of Vertebrate Animals used for Experimental and Other Scientific Purposes (Strasburg, 1986). The animals were held in standard plastic cages and fed a standard diet of PK120-3 (granulated feed in accordance with order # 1179 M3 USSR 10/10/1983) with a free access to water.
Animals' body weight changes were monitored throughout the experiment. The experimental animals were then sacrificed by decapitation, and their blood was collected in test tubes. The stomachs were extracted, dissected along the major curve, rinsed with cold saline solution, and the mucosa was carefully examined through a magnifying glass under bright lights. The mucosa was inspected for color, the presence of hyperemia and its intensity. The number of lesions, which were differentiated into small round (less than 1 mm), linear, and large lesions (more than 1mm) and the size of the area they covered were calculated. The average number of lesions per one animal in a group and the percentage of animals with ulcers were also calculated. Pauls Index (PI) was used as an integral indicator of the number of lesions and was calculated as follows: • PI = average number of lesions in a group x % of animals with lesions/100 [Pauls F., Wick A.M.,Mac. Key E.M. et al. An assau method for anti ulcer substances // Gastroenterology.- 1947. #8.- p.p.774 - 782]. Ulcer index UI was calculated as: UI = average lesion area size in the group x % of animals with lesions/100; gastroprotective activity GA1 was calculated as: GA1 = PI of the control group/PI of the experimental group, GA2 = UI of the control group/UI of the experimental group.
Five groups of 10 animals per group were prepared for the experiment as described in Example 1.
In each series of experiments, the animals were divided into experimental and control groups at 10 animals per group. The animals in the experimental group were orally administered the proposed medication or a comparator drug, and the control animals were given distilled water in the same amount. • control group received distilled water per os; • experimental group 1 received 0.1 mkg/kg N-isovaleroyl-L-glutamyl-L-tryptophan; • experimental group 2 received 10 mkg/kg N-isovaleroyl-L-glutamyl-L-tryptophan; • experimental group 3 received 200 mkg/kg of the comparator drug Sucralfate.
The efficacy of the course of preventive treatment with the claimed composition was evaluated 24 hrs. post indomethacin administration. The study was conducted as in Example 1.

[2] = system: indomethacin-induced ulcers; assay: Indomethacin-induced ulcer model, therapeutic treatment: healing of gastric lesions; parameters: key to GA1 (gastroprotective activity calculated for number of lesions): GA1 = PI of control group / PI of experimental group; key to GA2 (gastroprotective activity calculated for lesion size): GA2 = UI of control group / UI of experimental group; key to Ulcer Index: UI = average lesion area in group × % animals with lesions / 100; Lesion Size: unit not given here
[3] = Indomethacin-induced ulcer model, therapeutic: survival; settings: Indomethacin 30 mg/kg
Description: 2 ml/kg of the ulcerogenic dose of indomethacin equal to 30 mg/kg was administered intraperitoneally. The treatment started 24 hrs. post indomethacin administration and continued for 5 days. The animals in the experimental groups received N-isovaleroyl-L-glutamyl-L-tryptophan or the comparator drug Sucralfate, and the control group received distilled water.
On the 5th day, only 7 out of 10 animals in the control group survived, while in the group receiving VGT 9 out of 10 survived.

[4] = 0.1 mkg/kg + Indomethacin 20 mg/kg
[5] = 10 mkg/kg + Indomethacin 20 mg/kg
[6] = Indomethacin 30 mg/kg + 1 mkg/kg, treatment 5 days

N-isovaleroyl-L-glutamyl-L-tryptophan [VGT preparation]
# Lesions [1, 4]: 7.5 ± 1.0
% Animals with Ulcers [1, 4]: 100%
GA1 (gastroprotective activity calculated for number of lesions) [1, 4]: 2.84
GA2 (gastroprotective activity calculated for lesion size) [1, 4]: 5.51
Lesion Size [1, 4]: 4.1 ± 0.9
PI [1, 4]: 7.5
Ulcer Index [1, 4]: 4.1
Large round Amount ([1]; 0.1 mkg/kg): 2.7 ± 0.5
Large round Size ([1]; 0.1 mkg/kg): 1.4 ± 0.3
Linear Amount ([1]; 0.1 mkg/kg): 2.0 ± 0.7
Linear Size ([1]; 0.1 mkg/kg): 1.9 ± 0.7
Small round Amount ([1]; 0.1 mkg/kg): 2.8 ± 0.7
Small round Size ([1]; 0.1 mkg/kg): 0.8 ± 0.2
Total Amount ([1]; 0.1 mkg/kg): 7.5 ± 1.0
Total Size ([1]; 0.1 mkg/kg): 4.1 ± 0.9
# Lesions [1, 5]: 8.3 ± 1.7
% Animals with Ulcers [1, 5]: 100%
GA1 (gastroprotective activity calculated for number of lesions) [1, 5]: 2.57
GA2 (gastroprotective activity calculated for lesion size) [1, 5]: 5.51
Lesion Size [1, 5]: 4.1 ± 1.6
PI [1, 5]: 8.3
Ulcer Index [1, 5]: 4.1
Large round Amount ([1]; 10.0 mkg/kg): 3.5 ± 0.9
Large round Size ([1]; 10.0 mkg/kg): 1.7 ± 0.6
Linear Amount ([1]; 10.0 mkg/kg): 1.2 ± 0.5
Linear Size ([1]; 10.0 mkg/kg): 1.8 ± 1.1
Small round Amount ([1]; 10.0 mkg/kg): 3.6 ± 1.3
Small round Size ([1]; 10.0 mkg/kg): 0.5 ± 0.1
Total Amount ([1]; 10.0 mkg/kg): 8.3 ± 1.7
Total Size ([1]; 10.0 mkg/kg): 4.1 ± 1.6
size of the lesions in the gastric mucosa reduced ([1]; preventive treatment, indomethacin-induced lesions): 5 times
Pauls index lower than that of the control animals ([2]; 0.1 mkg/kg, treatment after Indomethacin): 2 times
# Lesions [2, 6]: 4.1 ± 0.8
% Animals with Ulcers [2, 6]: 100%
GA1 (gastroprotective activity calculated for number of lesions) [2, 6]: 2.0
GA2 (gastroprotective activity calculated for lesion size) [2, 6]: 2.6
Lesion Size [2, 6]: 12.3 ± 3.5
PI [2, 6]: 4.1
Ulcer Index [2, 6]: 12.3
GA2 (gastroprotective activity calculated for lesion size) ([2]; Indomethacin 30 mg/kg + 10 mkg/kg, treatment 5 days): 1.4
animals survived ([3]; 0.1 mkg/kg): 9 out of 10
animals survived ([3]; on the 5th day, control 7 out of 10): 9 out of 10
